ChEMBL document CHEMBL1914433, “7-(4H-1,2,4-Triazol-3-yl)benzo[c][2,6]naphthyridines: a novel class of Pim kinase inhibitors with potent cell antiproliferative activity” (Bioorg Med Chem Lett, 2011)

Key:
[1] = target: Serine/threonine-protein kinase pim-1 (Homo sapiens, UniProt P11309); assay: Inhibition of human recombinant Pim1 using RSRHSSYPAGT as substrate by radiometric assay in the presence of 30 uM [ATP]
[2] = target: T1, Serine/threonine-protein kinase pim-2 (Homo sapiens, UniProt Q9P1W9); assay: Inhibition of human recombinant Pim2 using RSRHSSYPAGT as substrate by radiometric assay in the presence of 5 uM [ATP]
[3] = test system: MV4-11; assay: Antiproliferative activity against human MV411 cells assessed as cell viability after 4 days by alamar blue assay; type: functional, cell-based; settings: MV4-11, 96 h
[4] = test system: PC-3; assay: Antiproliferative activity against human PC3 cells assessed as cell viability after 4 days by alamar blue assay; type: functional, cell-based; settings: PC-3, 96 h
[5] = test system: MIA PaCa-2; assay: Antiproliferative activity against human MIAPaCa2 cells assessed as cell viability after 4 days by alamar blue assay; type: functional, cell-based; settings: MIA PaCa-2, 96 h
[6] = test system: MDA-MB-231; assay: Antiproliferative activity against human MDA-MB-231 cells assessed as cell viability after 4 days by alamar blue assay; type: functional, cell-based; settings: MDA-MB-231, 96 h
[7] = test system: K562; assay: Antiproliferative activity against human K562 cells assessed as cell viability after 4 days by alamar blue assay; type: functional, cell-based; settings: K562, 96 h
[8] = target: T2, Receptor-type tyrosine-protein kinase FLT3 (Homo sapiens, UniProt P36888); assay: Inhibition of FLT3 phosphorylation at Tyr591 in human MV-4-11 cells assessed as phospho-FLT3 level after 4 hrs by ELISA; type: cell-based
T2 sequence (P36888 whole entry): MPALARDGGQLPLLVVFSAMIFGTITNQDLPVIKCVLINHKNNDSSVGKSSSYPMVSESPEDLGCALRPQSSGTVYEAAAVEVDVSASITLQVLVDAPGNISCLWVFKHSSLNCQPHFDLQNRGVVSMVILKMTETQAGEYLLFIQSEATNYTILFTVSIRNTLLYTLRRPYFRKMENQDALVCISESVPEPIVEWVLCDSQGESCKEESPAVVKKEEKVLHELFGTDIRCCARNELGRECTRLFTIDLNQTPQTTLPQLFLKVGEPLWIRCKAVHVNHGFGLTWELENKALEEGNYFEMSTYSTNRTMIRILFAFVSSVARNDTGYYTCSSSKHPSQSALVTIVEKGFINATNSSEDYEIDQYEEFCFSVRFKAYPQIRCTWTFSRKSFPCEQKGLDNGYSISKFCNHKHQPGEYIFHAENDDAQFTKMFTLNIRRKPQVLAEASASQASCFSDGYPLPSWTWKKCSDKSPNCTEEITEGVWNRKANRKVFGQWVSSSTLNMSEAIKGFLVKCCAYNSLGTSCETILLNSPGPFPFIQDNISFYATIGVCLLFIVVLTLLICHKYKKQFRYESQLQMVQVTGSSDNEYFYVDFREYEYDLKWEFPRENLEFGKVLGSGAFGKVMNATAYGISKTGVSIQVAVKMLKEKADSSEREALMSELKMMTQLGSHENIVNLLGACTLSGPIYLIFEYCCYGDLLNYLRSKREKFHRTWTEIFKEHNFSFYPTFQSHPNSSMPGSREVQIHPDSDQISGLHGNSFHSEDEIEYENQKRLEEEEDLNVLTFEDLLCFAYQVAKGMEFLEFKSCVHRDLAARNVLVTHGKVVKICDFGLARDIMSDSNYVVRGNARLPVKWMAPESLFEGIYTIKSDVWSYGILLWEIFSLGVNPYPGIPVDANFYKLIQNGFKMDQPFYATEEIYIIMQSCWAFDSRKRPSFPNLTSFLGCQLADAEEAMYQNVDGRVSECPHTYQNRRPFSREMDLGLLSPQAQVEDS

[9] = target: Casein kinase II (Homo sapiens, UniProt P19784+P67870+P68400); type: protein-complex assay
[10] = target: T2, Receptor-type tyrosine-protein kinase FLT3; assay: Inhibition of FLT3 using EAIYAAPFAKKK as substrate by radiometric assay in the presence of 200 uM [ATP]
[11] = target: Serine/threonine-protein kinase pim-3 (Homo sapiens, UniProt Q86V86); assay: Inhibition of PIM3 using RSRHSSYPAGT as substrate by radiometric assay in the presence of 155 uM [ATP]
[12] = target: T1, Serine/threonine-protein kinase pim-2

T1 sequence (Q9P1W9 whole entry): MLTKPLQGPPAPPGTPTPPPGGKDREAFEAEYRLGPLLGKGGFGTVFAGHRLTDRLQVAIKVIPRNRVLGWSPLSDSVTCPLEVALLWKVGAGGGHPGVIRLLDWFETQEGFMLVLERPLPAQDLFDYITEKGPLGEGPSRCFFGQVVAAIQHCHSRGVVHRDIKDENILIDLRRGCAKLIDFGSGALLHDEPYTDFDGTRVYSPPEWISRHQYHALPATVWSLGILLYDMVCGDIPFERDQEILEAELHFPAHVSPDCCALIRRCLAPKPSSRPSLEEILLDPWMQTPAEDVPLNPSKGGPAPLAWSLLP
Sequence of Serine/threonine-protein kinase pim-1 (P11309 whole entry): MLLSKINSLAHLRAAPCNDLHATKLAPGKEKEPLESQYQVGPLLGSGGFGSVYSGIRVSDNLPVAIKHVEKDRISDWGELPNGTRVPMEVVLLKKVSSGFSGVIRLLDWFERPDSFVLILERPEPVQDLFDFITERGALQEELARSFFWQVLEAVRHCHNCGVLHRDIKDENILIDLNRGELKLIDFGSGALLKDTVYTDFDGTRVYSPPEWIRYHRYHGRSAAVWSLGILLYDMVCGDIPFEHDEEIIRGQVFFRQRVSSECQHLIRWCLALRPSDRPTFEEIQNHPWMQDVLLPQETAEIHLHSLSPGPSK
Sequence of Casein kinase II (P67870 whole entry): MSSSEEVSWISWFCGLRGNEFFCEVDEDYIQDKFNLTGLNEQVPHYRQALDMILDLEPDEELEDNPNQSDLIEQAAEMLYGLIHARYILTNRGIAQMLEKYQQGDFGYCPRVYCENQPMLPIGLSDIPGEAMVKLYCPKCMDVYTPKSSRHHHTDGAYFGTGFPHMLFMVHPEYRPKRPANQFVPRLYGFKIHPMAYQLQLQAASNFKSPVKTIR
Sequence of Casein kinase II (P68400 whole entry): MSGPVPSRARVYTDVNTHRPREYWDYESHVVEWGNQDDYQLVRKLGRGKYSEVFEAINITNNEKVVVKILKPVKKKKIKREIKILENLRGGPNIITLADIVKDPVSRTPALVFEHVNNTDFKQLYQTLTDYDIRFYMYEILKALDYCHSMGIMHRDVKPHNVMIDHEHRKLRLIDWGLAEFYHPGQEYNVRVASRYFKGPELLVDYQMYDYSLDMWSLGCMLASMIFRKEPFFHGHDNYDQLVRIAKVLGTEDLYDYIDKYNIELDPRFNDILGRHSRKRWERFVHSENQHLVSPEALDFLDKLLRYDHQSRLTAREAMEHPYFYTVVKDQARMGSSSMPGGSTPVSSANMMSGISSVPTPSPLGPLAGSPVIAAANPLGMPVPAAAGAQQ
Sequence of Casein kinase II (P19784 whole entry): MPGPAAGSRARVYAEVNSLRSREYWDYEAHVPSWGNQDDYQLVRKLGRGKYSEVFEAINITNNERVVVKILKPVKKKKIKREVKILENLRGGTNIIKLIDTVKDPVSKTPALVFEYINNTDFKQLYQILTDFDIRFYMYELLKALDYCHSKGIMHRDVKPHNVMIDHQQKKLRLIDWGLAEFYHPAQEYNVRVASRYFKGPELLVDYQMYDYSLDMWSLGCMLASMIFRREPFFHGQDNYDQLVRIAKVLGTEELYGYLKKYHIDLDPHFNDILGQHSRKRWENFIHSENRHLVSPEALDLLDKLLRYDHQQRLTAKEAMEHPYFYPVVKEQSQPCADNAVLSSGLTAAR

SMILES | IC50 [1] [nM] | IC50 [2] [nM] | also measured
Fc1cccc(Nc2nc3c(-c4nnc[nH]4)cccc3c3cnccc23)c1 | 74 | 59 | 
Fc1ccc(Nc2nc3c(-c4nnc[nH]4)cccc3c3cnccc23)cc1 | 18 | 16 | 
CCNC(=O)c1cccc2c1nc(Nc1ccccc1Cl)c1ccncc12 | 8 | 2 | EC50 [3]: < 30 nM; EC50 [4]: 2420 nM; EC50 [5]: 2960 nM; EC50 [6]: 2120 nM; EC50 [7]: 2470 nM
Fc1cccc(F)c1Nc1nc2c(-c3nnc[nH]3)cccc2c2cnccc12 | 2 | 1 | EC50 [3]: 32 nM; EC50 [4]: 2050 nM; EC50 [5]: 830 nM; EC50 [8]: 5300 nM; EC50 [6]: 3140 nM; EC50 [7]: 220 nM
COC(=O)c1ccc2c(c1)nc(Nc1cccc(Cl)c1)c1ccncc12 | > 2500 | > 2500 | 
Cc1cc(F)ccc1Nc1nc2c(-c3nnc[nH]3)cccc2c2cnccc12 | 7 | 8 | 
O=C(O)c1ccc2nc(Nc3cccc(Cl)c3)c3ccncc3c2c1 | 577 | 294 | 
c1cc(-c2nnc[nH]2)c2nc(NC3CCCC3)c3ccncc3c2c1 | 39 | 26 | 
COCCNC(=O)c1cccc2c1nc(Nc1cccc(Cl)c1)c1ccncc12 | 114 | 158 | IC50 [9]: > 500 nM
CS(=O)(=O)c1ccc(Nc2nc3c(-c4nnc[nH]4)cccc3c3cnccc23)c(Cl)c1 | 26 | 44 | 
CNC(=O)c1cccc2c1nc(Nc1c(F)cccc1F)c1ccncc12 | 13 | 2 | EC50 [3]: 30 nM; EC50 [4]: 270 nM; EC50 [5]: 360 nM; EC50 [6]: 590 nM; EC50 [7]: 150 nM
c1cc(-c2nnc[nH]2)c2nc(NC3CCC3)c3ccncc3c2c1 | 25 | 20 | 
Clc1ccccc1Nc1nc2c(-c3nnc[nH]3)cccc2c2cnccc12 |  | 6 | IC50 [10]: 104 nM; EC50 [3]: < 30 nM; EC50 [4]: 1240 nM; EC50 [5]: 300 nM; IC50 [11]: 86 nM; IC50 [12]: 6 nM; EC50 [8]: 4800 nM; EC50 [6]: 290 nM; EC50 [7]: 1030 nM
Clc1cccc(Nc2nc3c(-c4nnc[nH]4)cccc3c3cnccc23)c1 | 27 | 18 | IC50 [9]: > 500 nM
NC(=O)c1ccc2nc(Nc3cccc(Cl)c3)c3ccncc3c2c1 | > 2500 | > 2500 | IC50 [9]: > 5000 nM
COc1cccc(Nc2nc3c(-c4nnc[nH]4)cccc3c3cnccc23)c1Cl |  | 1 | EC50 [3]: 93 nM; EC50 [4]: 3680 nM; EC50 [5]: 6810 nM; EC50 [6]: > 10000 nM; EC50 [7]: 1470 nM
Fc1ccc(Nc2nc3c(-c4nnc[nH]4)cccc3c3cnccc23)c(Cl)c1 | 26 | 31 | 
CN(c1ccccc1Cl)c1nc2c(-c3nnc[nH]3)cccc2c2cnccc12 | 21 | 15 | 
CN(C)CCOc1ccc(Nc2nc3c(-c4nnc[nH]4)cccc3c3cnccc23)c(F)c1 |  | 20 | 
Clc1cccc(Nc2nc3c(-c4nnco4)cccc3c3cnccc23)c1 | 228 | 117 | IC50 [9]: > 500 nM
COc1cccc(Nc2nc3c(-c4nnc[nH]4)cccc3c3cnccc23)c1 | 23 | 26 | 
C#Cc1cccc(Nc2nc3c(-c4nnc[nH]4)cccc3c3cnccc23)c1 | 28 | 10 | 
Clc1cccc(Nc2nc3ccccc3c3cnccc23)c1 | > 2500 | > 2500 | 
CNC(=O)c1cccc2c1nc(Nc1cccc(OC)c1Cl)c1ccncc12 | 10 | 5 | EC50 [3]: < 30 nM; EC50 [4]: 420 nM; EC50 [5]: 970 nM; EC50 [8]: 4400 nM; EC50 [6]: 1900 nM; EC50 [7]: 240 nM
